Test results from ChEMBL document CHEMBL1201862, “PubChem BioAssay data set” (2004).
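Test compounds were applied to cells in 96-well plates for 48 hours at 5 doses. GI50 = concentration required for 50% inhibition of growth.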 Active and inactive are the calls of the source. Cut-off read from the data, not from the text of the source: active = GI50 up to about 1.1 µM and inactive = higher.

Tests used:
Assay in all cases: NCI anticancer screen, dose series, 48 h
U-251 = tested on: U-251
NCI/ADR-RES = tested on: NCI/ADR-RES
Malme-3M = tested on: Malme-3M
SK-MEL-28 = tested on: SK-MEL-28
SK-OV-3 = tested on: SK-OV-3
HOP-62 = tested on: HOP-62
NCI-H460 = tested on: NCI-H460
HT-29 = tested on: HT-29
COLO 205 = tested on: COLO 205
SNB-19 = tested on: SNB-19
NCI-H522 = tested on: NCI-H522
MDA-MB-231 = tested on: MDA-MB-231
SK-MEL-2 = tested on: SK-MEL-2
UACC-62 = tested on: UACC-62
MDA-N = tested on: MDA-N
HCC 2998 = tested on: HCC 2998
SF-539 = tested on: SF-539
A549 = tested on: A549
HL-60 = tested on: HL-60
DU-145 = tested on: DU-145
K562 = tested on: K562
M14 = tested on: M14
RPMI-8226 = tested on: RPMI-8226
SR = tested on: SR
OVCAR-8 = tested on: OVCAR-8
UO-31 = tested on: UO-31
UACC-257 = tested on: UACC-257
OVCAR-5 = tested on: OVCAR-5
SK-MEL-5 = tested on: SK-MEL-5
NCI-H23 = tested on: NCI-H23
T47D = tested on: T47D
BT-549 = tested on: BT-549
HCT-15 = tested on: HCT-15
NCI-H226 = tested on: NCI-H226
ACHN = tested on: ACHN
IGROV-1 = tested on: IGROV-1
HOP-92 = tested on: HOP-92
A498 = tested on: A498
EKVX = tested on: EKVX
SF-268 = tested on: SF-268
OVCAR-3 = tested on: OVCAR-3
Hs-578T = tested on: Hs-578T
CCRF-CEM = tested on: CCRF-CEM
PC-3 = tested on: PC-3
KM12 = tested on: KM12
CAKI-1 = tested on: CAKI-1
MOLT-4 = tested on: MOLT-4
TK-10 = tested on: TK-10
RXF 393 = tested on: RXF 393
MCF7 = tested on: MCF7
LOX IMVI = tested on: LOX IMVI
HCT-116 = tested on: HCT-116
SN12C = tested on: SN12C
SF-295 = tested on: SF-295
MDA-MB-435 = tested on: MDA-MB-435
SW-620 = tested on: SW-620
786-0 = tested on: 786-0
SNB-75 = tested on: SNB-75
OVCAR-4 = tested on: OVCAR-4

## COc1ccc2c(c1)/C(=C\c1c(Cl)[nH]c3ccccc13)C(=O)N2
U-251
  GI50: 3.71 µM (inactive)
NCI/ADR-RES
  GI50: 2.81 µM (inactive)
Malme-3M
  GI50: 5.92 µM (inactive)
SK-MEL-28
  GI50: 3.39 µM (inactive)
SK-OV-3
  GI50: 2.97 µM (inactive)
HOP-62
  GI50: 5.75 µM (inactive)
NCI-H460
  GI50: 3.98 µM (inactive)
HT-29
  GI50: 2.14 µM (inactive)
COLO 205
  GI50: 2.27 µM (inactive)
SNB-19
  GI50: 6.62 µM (inactive)
NCI-H522
  GI50: 3.05 µM (inactive)
MDA-MB-231
  GI50: 4.47 µM (inactive)
SK-MEL-2
  GI50: 4.21 µM (inactive)
UACC-62
  GI50: 5.16 µM (inactive)
MDA-N
  GI50: 1.75 µM (inactive)
HCC 2998
  GI50: 2.68 µM (inactive)
SF-539
  GI50: 3.61 µM (inactive)
A549
  GI50: 4.99 µM (inactive)
HL-60
  GI50: 3.18 µM (inactive)
DU-145
  GI50: 19.3 µM (inactive)
K562
  GI50: 3.62 µM (inactive)
M14
  GI50: 4.08 µM (inactive)
RPMI-8226
  GI50: 3.61 µM (inactive)
SR
  GI50: 2.03 µM (inactive)
OVCAR-8
  GI50: 11.1 µM (inactive)
UO-31
  GI50: 6.78 µM (inactive)
UACC-257
  GI50: 6.14 µM (inactive)
OVCAR-5
  GI50: 10.9 µM (inactive)
SK-MEL-5
  GI50: 3.6 µM (inactive)
NCI-H23
  GI50: 11.4 µM (inactive)
T47D
  GI50: 26.1 µM (inactive)
BT-549
  GI50: 3.3 µM (inactive)
HCT-15
  GI50: 5.14 µM
NCI-H226
  GI50: 16.2 µM (inactive)
ACHN
  GI50: 5.25 µM (inactive)
IGROV-1
  GI50: 1.21 µM (inactive)
HOP-92
  GI50: 1.84 µM (inactive)
A498
  GI50: 8 µM (inactive)
EKVX
  GI50: 3.3 µM (inactive)
SF-268
  GI50: 4 µM (inactive)
OVCAR-3
  GI50: 6 µM (inactive)
Hs-578T
  GI50: 2.51 µM (inactive)
CCRF-CEM
  GI50: 3.21 µM (inactive)
PC-3
  GI50: 4.9 µM (inactive)
KM12
  GI50: 3.05 µM (inactive)
CAKI-1
  GI50: 3.86 µM (inactive)
MOLT-4
  GI50: 5.33 µM (inactive)
TK-10
  GI50: 6.9 µM (inactive)
RXF 393
  GI50: 2.88 µM (inactive)
MCF7
  GI50: 3.58 µM (inactive)
LOX IMVI
  GI50: 5.09 µM (inactive)
HCT-116
  GI50: 2.57 µM (inactive)
SN12C
  GI50: 7.8 µM (inactive)
SF-295
  GI50: 1.97 µM (inactive)
MDA-MB-435
  GI50: 1.91 µM (inactive)
SW-620
  GI50: 3.4 µM (inactive)
786-0
  GI50: 4.49 µM (inactive)

## OC1(c2ccc(Cl)cc2)c2c(ccc3c2OCO3)C2=NCCN21 (stereo not drawn)
U-251
  GI50: 44.9 µM (inactive)
NCI/ADR-RES
  GI50: > 100 µM (inactive)
Malme-3M
  GI50: 1.23 µM (inactive)
SK-MEL-28
  GI50: 17.9 µM (inactive)
SK-OV-3
  GI50: 68.1 µM (inactive)
HOP-62
  GI50: 58.3 µM (inactive)
NCI-H460
  GI50: 40.6 µM (inactive)
HT-29
  GI50: 29.6 µM (inactive)
COLO 205
  GI50: 18.3 µM (inactive)
SNB-19
  GI50: 73.6 µM (inactive)
MDA-MB-231
  GI50: 28.4 µM (inactive)
SK-MEL-2
  GI50: 21.2 µM (inactive)
UACC-62
  GI50: 19 µM (inactive)
MDA-N
  GI50: 28.6 µM (inactive)
SF-539
  GI50: 36.1 µM (inactive)
SNB-75
  GI50: 6.14 µM (inactive)
A549
  GI50: 70.3 µM (inactive)
HL-60
  GI50: 38.8 µM (inactive)
DU-145
  GI50: 97.7 µM (inactive)
K562
  GI50: 26.2 µM (inactive)
M14
  GI50: 16.6 µM (inactive)
RPMI-8226
  GI50: 19.2 µM (inactive)
SR
  GI50: 21.5 µM (inactive)
OVCAR-8
  GI50: 67.5 µM (inactive)
UO-31
  GI50: 38.5 µM (inactive)
UACC-257
  GI50: 19.1 µM (inactive)
OVCAR-5
  GI50: 65.3 µM (inactive)
SK-MEL-5
  GI50: 17.2 µM (inactive)
NCI-H23
  GI50: 63 µM (inactive)
T47D
  GI50: 31.7 µM (inactive)
BT-549
  GI50: 32.3 µM (inactive)
HCT-15
  GI50: 52.7 µM
ACHN
  GI50: 38 µM (inactive)
IGROV-1
  GI50: 20.5 µM (inactive)
HOP-92
  GI50: 16.7 µM (inactive)
A498
  GI50: 20.1 µM (inactive)
EKVX
  GI50: 75 µM (inactive)
SF-268
  GI50: 45 µM (inactive)
OVCAR-3
  GI50: 54.6 µM (inactive)
OVCAR-4
  GI50: 45.8 µM (inactive)
Hs-578T
  GI50: 20.8 µM (inactive)
CCRF-CEM
  GI50: 37.9 µM (inactive)
PC-3
  GI50: 42.7 µM (inactive)
KM12
  GI50: 19.6 µM (inactive)
CAKI-1
  GI50: 46.9 µM (inactive)
MOLT-4
  GI50: 40.1 µM (inactive)
TK-10
  GI50: 15 µM (inactive)
RXF 393
  GI50: 26.7 µM (inactive)
MCF7
  GI50: 33.7 µM (inactive)
LOX IMVI
  GI50: 30.5 µM (inactive)
HCT-116
  GI50: 36.8 µM (inactive)
SN12C
  GI50: 53.7 µM (inactive)
SF-295
  GI50: 36.6 µM (inactive)
MDA-MB-435
  GI50: 28.1 µM (inactive)
SW-620
  GI50: 97.9 µM (inactive)
786-0
  GI50: 62.2 µM (inactive)
